IC50 data for nine compounds are collected here from US6872805B2 (Bristol-Myers Squibb Company, priority 2000, dated 2005).

Sequence of HCV NS3/4A protease complex (P27958 1027-1711, stated change not applied): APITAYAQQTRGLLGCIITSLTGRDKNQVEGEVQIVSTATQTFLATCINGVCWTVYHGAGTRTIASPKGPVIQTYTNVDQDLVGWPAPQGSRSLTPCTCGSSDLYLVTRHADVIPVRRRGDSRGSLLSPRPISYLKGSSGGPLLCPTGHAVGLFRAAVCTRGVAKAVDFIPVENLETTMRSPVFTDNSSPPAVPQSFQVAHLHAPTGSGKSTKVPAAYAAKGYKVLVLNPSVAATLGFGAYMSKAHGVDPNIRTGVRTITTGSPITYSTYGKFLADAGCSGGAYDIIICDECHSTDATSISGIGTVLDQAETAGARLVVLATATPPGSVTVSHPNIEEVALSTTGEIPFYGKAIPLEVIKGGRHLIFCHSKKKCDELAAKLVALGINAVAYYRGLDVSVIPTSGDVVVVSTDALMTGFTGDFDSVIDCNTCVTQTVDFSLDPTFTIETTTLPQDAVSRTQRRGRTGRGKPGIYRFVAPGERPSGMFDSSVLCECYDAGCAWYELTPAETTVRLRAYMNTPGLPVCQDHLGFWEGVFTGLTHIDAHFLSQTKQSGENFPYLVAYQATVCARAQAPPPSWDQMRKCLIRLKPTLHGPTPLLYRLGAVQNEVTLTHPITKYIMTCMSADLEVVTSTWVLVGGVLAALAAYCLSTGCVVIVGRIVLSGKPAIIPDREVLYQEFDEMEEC
Sequence of HCV NS3/4A protease complex (P27958 1027-1711, stated change not applied): as above

In one experiment the target is HCV NS3/4A protease complex (Hepatitis C virus genotype 1a, UniProt P27958, C1454S/C1711G). The experiment can be described thus: Recombinant HCV NS3/4A protease complex FRET peptide assay (strain not stated). Format: biochemical. The note with it: IC50, NS3/4A protease enzyme assay, strain not stated; activity ranges. The source says:
The purpose of this in vitro assay was to measure the inhibition of HCV NS3 protease complexes, derived from the BMS, H77C or J416S strains, as described below, by compounds of the present invention.
Serum from an HCV-infected patient was obtained from Dr. T. Wright, San Francisco Hospital. An engineered full-length cDNA template of the HCV genome (BMS strain) was constructed from DNA fragments obtained by reverse transcription-PCR (RT-PCR) of serum RNA and using primers selected on the basis of homology between other genotype 1a strains. […] The infectious clones, H77C (1a genotype) and J4L6S (1b genotype) were obtained from R. Purcell (NIH) and the sequences are published in genebank (AAB67036, see Yanagi, M., Purcell, R. H., Emerson, S. U. and Bukh, J. Proc. Natl. Acad. Sci. U.S.A. 94(16),8738-8743 (1997); AF054247, see Yanagi, M., St Claire, M., Shapiro, M., Emerson, S. U., Purcell, R. H. and Bukh, J, Virology 244 (1), 161-172. (1998)).
The BMS, H77C and J4L6S strains were used for production of recombinant NS3/4A protease complexes. DNA encoding the recombinant HCV NS3/4A protease complex (amino acid 1027 to 1711) for these strains were manipulated as described by P. Gallinari et al. (see Gallinari P, Paolini C, Brennan D, Nardi C, Steinkuhler C, De Francesco R. Biochemistry. 38(17):5620-32, (1999)). Briefly, a three-lysine solubilizing tail was added at the 3′-end of the NS4A coding region. The cysteine in the P1 position of the NS4A-NS4B cleavage site (amino acid 1711) was changed to a glycine to avoid the proteolytic cleavage of the lysine tag. Furthermore, a cysteine to serine mutation was introduced by PCR at amino acid position 1454 to prevent the autolytic cleavage in the NS3 helicase domain. The variant DNA fragment was cloned in the pET21b bacterial expression vector and the NS3/4A complex was expressed in E. coli BL21 (DE3) following the protocol described by P. Gallinari et al. (see Gallinari P, Brennan D, Nardi C, Brunetti M, Tomei L, Steinkuhler C, De Francesco R., J Virol. 72(8):6758-69 (1998)) with modifications. Briefly, NS3/4A expression was induced with 0.5 mM IPTG for 22 hr at 20° C. […] The cells were resuspended in lysis buffer (10 mL/g) consisting of 25 mM HEPES, pH 7.5, 20% glycerol, 500 mM NaCl, 0.5% Triton-X100, 1 ug/ml lysozyme, 5 mM MgCl2, 1 ug/ml DNaseI 5 mM β-Mercaptoethanol (βME), Protease inhibitor—EDTA free, homogenized and incubated for 20 mins at 4° C. The homogenate was sonicated and clarified by ultra-centrifugation at 235000 g for 1 hr at 4° C. Imidazole was added to the supernatant to a final concentration of 15 mM and the pH adjusted to 8.0. The crude protein extract was loaded on a Ni-NTA column pre-equilibrated with buffer B (25 mM HEPES, pH 8.0, 20% glycerol, 500 mM NaCl, 0.5% Triton-X100, 15 mM imidazole, 5 mM βME). The sample was loaded at a flow rate of 1 mL/min. The column was washed with 15 column volumes of buffer C (same as buffer B except with 0.2% Triton-X100). The protein was eluted with 5 column volumes of 200 mM Imidazole in buffer.
NS3/4A protease complex-containing fractions were pooled and loaded on a desalting column Superdex-S200 pre-equilibrated with buffer D (25 mM HEPES, pH 7.5, 20% glycerol, 300 mM NaCl, 0.2% Triton-X100, 10 mM βME). Sample was loaded at a flow rate of 1 mL/min. NS3/4A protease complex-containing fractions were pooled and concentrated to approximately 0.5 mg/ml.
The IC50 is the concentration that inhibits the measured activity by half. On to `C=CC1CC1(NC(=O)[C@@H]1C[C@@H](Oc2cc(-c3ccccc3)nc3cc(OC)ccc23)CN1C(=O)[C@@H](NC(=O)OC(C)(C)C)C(C)(C)C)C(=O)NS(C)(=O)=O` (stereo partly drawn) [Compound 88], for which the IC50 was less than 500 nM.
As for `C=CC1CC1(NC(=O)[C@@H]1C[C@@H](Oc2cc(-c3ccccc3)nc3cc(OC)ccc23)CN1C(=O)[C@H](CC(C)C)NC(=O)OC(C)(C)C)C(=O)NS(C)(=O)=O` (stereo partly drawn) [Compound 90], the half-maximal inhibitory concentration (IC50) is less than 500 nM.
Still for that read-out and setting: the same measure for `C=CC1CC1(NC(=O)[C@@H]1C[C@@H](Oc2cc(-c3ccccc3)nc3cc(OC)ccc23)CN1C(=O)[C@@H](NC(=O)OC(C)(C)C)C(C)C)C(=O)NS(=O)(=O)C1CC1` (stereo partly drawn) [Compound 92]: less than 50 nM; for `C=CC1CC1(NC(=O)[C@@H]1C[C@@H](Oc2cc(-c3ccccc3)nc3cc(OC)ccc23)CN1C(=O)[C@H](CC(C)C)NC(=O)OC(C)(C)C)C(=O)NS(=O)(=O)C1CC1` (stereo partly drawn) [Compound 93]: less than 50 nM; for `C=CC1CC1(NC(=O)OC(C)(C)C)C(=O)N1C[C@H](Oc2cc(-c3ccccc3)nc3cc(OC)ccc23)CC1C(=O)N[C@]1(C(=O)NS(=O)(=O)C2CC2)C[C@H]1C=C` (stereo partly drawn) [Compound 97, {1S-[2S-(1R-cyclopropanesulfonylamino-carbonyl-2S-vinylcyclopropylcarbamoyl)-4R-(7-methoxy-2-phenyl-quinolin-4-yloxy)-pyrrolidine-1-carbonyl]-2-vinyl-cyclopropyl}-carbamic acid tert-butyl ester]: less than 500 nM.
As to `COc1ccc2c(O[C@@H]3C[C@@H](C(=O)NC4(C(=O)NS(=O)(=O)C5CC5)CC45CCC5)N(C(=O)[C@@H](NC(=O)OC(C)(C)C)C(C)C)C3)cc(-c3ccccc3)nc2c1` (stereo partly drawn) [Compound 138], the half-maximal inhibitory concentration (IC50) was less than 5000 nM.
As for `COc1ccc2c(OC3C[C@@H](C(=O)NC4(C(=O)NS(=O)(=O)C5CC5)CC45CCCC5)N(C(=O)[C@@H](NC(=O)OC(C)(C)C)C(C)(C)C)C3)cc(-c3ccccc3)nc2c1` (stereo partly drawn) [Compound 139, {1-[2-(1-Cyclopropanesulfonylaminocarbonyl-spiro[2.4]hept-1-ylcarbamoyl)-4-(7-methoxy-2-phenyl-quinolin-4-yloxy)-pyrrolidine-1-carbonyl]-2,2-dimethyl-propyl}carbamic acid tert-butyl ester], the 50% inhibitory concentration (IC50) was less than 5000 nM.

Staying with this experiment, now noted: IC50, separated isomers of Compound 97; strain not stated.
As for `C=CC1CC1(NC(=O)OC(C)(C)C)C(=O)N1C[C@H](Oc2cc(-c3ccccc3)nc3cc(OC)ccc23)CC1C(=O)N[C@]1(C(=O)NS(=O)(=O)C2CC2)C[C@H]1C=C` (stereo partly drawn) [higher RF isomer, {1S-[2S-(1R-cyclopropanesulfonylamino-carbonyl-2S-vinylcyclopropylcarbamoyl)-4R-(7-methoxy-2-phenyl-quinolin-4-yloxy)-pyrrolidine-1-carbonyl]-2-vinyl-cyclopropyl}-carbamic acid tert-butyl ester], the IC50 worked out at 250 nM.
Regarding `C=CC1CC1(NC(=O)OC(C)(C)C)C(=O)N1C[C@H](Oc2cc(-c3ccccc3)nc3cc(OC)ccc23)CC1C(=O)N[C@]1(C(=O)NS(=O)(=O)C2CC2)C[C@H]1C=C` (stereo partly drawn) [lower RF isomer, {1S-[2S-(1R-cyclopropanesulfonylamino-carbonyl-2S-vinylcyclopropylcarbamoyl)-4R-(7-methoxy-2-phenyl-quinolin-4-yloxy)-pyrrolidine-1-carbonyl]-2-vinyl-cyclopropyl}-carbamic acid tert-butyl ester], the IC50 was 24 nM.
